Experiments:
HEK293 OATP1B1+ = conditions: for IC50: read-out: IC50_cytotox on OATP1B1 expressing cell line + SE
HEK293 OATP1B3+ = conditions: for IC50: read-out: IC50_cytotox on OATP1B3 expressing cell line + SE
[1] = molecular target: protein phosphatase-1 catalytic subunit (a-Isoform from rabbit, Sigma-Aldrich) (Oryctolagus cuniculus, UniProt P62139); assay type: biochemical; conditions: read-out: IC50_PPI + SE
[2] = molecular target: type 1 protein phosphatase; conditions: cited from earlier work
[3] = system: type 2A protein phosphatases; conditions: cited from earlier work

Sequence of protein phosphatase-1 catalytic subunit (a-Isoform from rabbit, Sigma-Aldrich) (P62139 whole entry, looked up, canonical isoform): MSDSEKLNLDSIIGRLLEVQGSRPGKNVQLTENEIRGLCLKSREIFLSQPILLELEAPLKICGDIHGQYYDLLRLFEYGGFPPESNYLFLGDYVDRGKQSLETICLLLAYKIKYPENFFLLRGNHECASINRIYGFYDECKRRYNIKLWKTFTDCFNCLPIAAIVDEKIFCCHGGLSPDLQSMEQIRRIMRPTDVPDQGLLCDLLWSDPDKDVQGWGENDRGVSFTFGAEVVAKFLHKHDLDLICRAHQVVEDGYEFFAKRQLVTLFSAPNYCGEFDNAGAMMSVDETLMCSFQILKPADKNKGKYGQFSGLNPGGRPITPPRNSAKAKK

Compound: C#CCOc1ccc(C[C@@H]2NC(=O)[C@@H](C)NC(=O)C(=C)N(C)C(=O)CC[C@H](C(=O)O)NC(=O)[C@@H](C)[C@H](/C=C/C(C)=C/[C@H](C)[C@H](Cc3ccccc3)OC)NC(=O)[C@H](CCCNC(=N)N)NC(=O)C[C@H](C(=O)O)NC2=O)cc1 [MC-(Prtyr)R, cyclo(D-Ala-Prtyr-D-Asp-R-Adda-D-Glu-Mdha)]
- Ratio of IC50_Cytotox OATP1B1/ IC50_PPI (HEK293 OATP1B1+): 9.79
- IC50 (HEK293 OATP1B1+): 82.2 ± 4.5 nM
- Ratio of IC50_cytotox OATP1B3/ IC50_PPI (HEK293 OATP1B3+): 4.81
- IC50 (HEK293 OATP1B3+): 40.4 ± 36.6 nM
- IC50 [1]: 8.4 ± 5.4 nM

Compound: C=C1C(=O)N[C@H](C)C(=O)N[C@@H](CCCN=[N+]=[N-])C(=O)N[C@@H](C(=O)O)CC(=O)N[C@@H](CCCNC(=N)N)C(=O)N[C@@H](/C=C/C(C)=C/[C@H](C)[C@H](Cc2ccccc2)OC)[C@H](C)C(=O)N[C@@H](C(=O)O)CCC(=O)N1C [MC-(Aznva)R, cyclo(D-Ala-Aznva-D-Asp-R-Adda-D-Glu-Mdha)]
- Ratio of IC50_Cytotox OATP1B1/ IC50_PPI (HEK293 OATP1B1+): 0.52
- IC50 (HEK293 OATP1B1+): 24.1 ± 11.5 nM
- Ratio of IC50_cytotox OATP1B3/ IC50_PPI (HEK293 OATP1B3+): 0.58
- IC50 (HEK293 OATP1B3+): 27 ± 1.5 nM
- IC50 [1]: 46.7 ± 9.2 nM

Compound: microcystin-LR
- IC50 [2]: 0.03 nM
- IC50 [3]: 0.04 nM

Source: patent EP4327830A1 (priority 2022, dated 2024)
